# Assay results from patent publication US9855268B2, “Triazolo[4,5-d]pyrimidine derivatives” (Merck Patent GmbH, priority 2013, dated 2018).
# Target: GCN2 (Homo sapiens, UniProt Q9P2K8)
# Experiment: GCN2 enzyme assay (TR-FRET Lanthascreen, GFP-eIF2alpha phosphorylation)
# Assay type: biochemical
# Settings: 10 μM ATP, 80 nM GFP-eIF2a, 30 nM GCN2
# Excerpt: GCN2: Assay Principle & Conditions
# This assay can quantificate the activity of the serin kinase GCN2 (general control non-derepressible-2).
# This kinase is involved in the stress metabolism of cells. It is activated upon starvation (amino acid depletion). Its natural substrate is eIF2a (eukaryotic initiation factor 2 alpha subunit), a translation factor, which gets activated (phosphorylated) by GCN2 in case of an amino acid bottleneck in the cells. This in turn leads to a halt of the protein synthesis. Inhibition of GCN2 results in stopping this mechanism: The cell can not stop protein production upon “starvation” stress.
# The assay is run in two steps: the enzymatic reaction and the detection step. In the first step GCN2 is incubated with 10 μM ATP and 80 nM of the GFP-labelled substrate eIF2alpha at room temperature.
# The enzymatic reaction is stopped by addition of EDTA. The amount of phosphorylated eIF2alpha is determined by TR-FRET (Lanthascreen): A complex is formed consisting of antibody and GFP labelled phospho-eIF2a, which allows a FRET upon exitation at 340 nm.
# Final Concentrations in the Enzymatic Reaction
# Sequence of GCN2 (Q9P2K8 whole entry, species assumed): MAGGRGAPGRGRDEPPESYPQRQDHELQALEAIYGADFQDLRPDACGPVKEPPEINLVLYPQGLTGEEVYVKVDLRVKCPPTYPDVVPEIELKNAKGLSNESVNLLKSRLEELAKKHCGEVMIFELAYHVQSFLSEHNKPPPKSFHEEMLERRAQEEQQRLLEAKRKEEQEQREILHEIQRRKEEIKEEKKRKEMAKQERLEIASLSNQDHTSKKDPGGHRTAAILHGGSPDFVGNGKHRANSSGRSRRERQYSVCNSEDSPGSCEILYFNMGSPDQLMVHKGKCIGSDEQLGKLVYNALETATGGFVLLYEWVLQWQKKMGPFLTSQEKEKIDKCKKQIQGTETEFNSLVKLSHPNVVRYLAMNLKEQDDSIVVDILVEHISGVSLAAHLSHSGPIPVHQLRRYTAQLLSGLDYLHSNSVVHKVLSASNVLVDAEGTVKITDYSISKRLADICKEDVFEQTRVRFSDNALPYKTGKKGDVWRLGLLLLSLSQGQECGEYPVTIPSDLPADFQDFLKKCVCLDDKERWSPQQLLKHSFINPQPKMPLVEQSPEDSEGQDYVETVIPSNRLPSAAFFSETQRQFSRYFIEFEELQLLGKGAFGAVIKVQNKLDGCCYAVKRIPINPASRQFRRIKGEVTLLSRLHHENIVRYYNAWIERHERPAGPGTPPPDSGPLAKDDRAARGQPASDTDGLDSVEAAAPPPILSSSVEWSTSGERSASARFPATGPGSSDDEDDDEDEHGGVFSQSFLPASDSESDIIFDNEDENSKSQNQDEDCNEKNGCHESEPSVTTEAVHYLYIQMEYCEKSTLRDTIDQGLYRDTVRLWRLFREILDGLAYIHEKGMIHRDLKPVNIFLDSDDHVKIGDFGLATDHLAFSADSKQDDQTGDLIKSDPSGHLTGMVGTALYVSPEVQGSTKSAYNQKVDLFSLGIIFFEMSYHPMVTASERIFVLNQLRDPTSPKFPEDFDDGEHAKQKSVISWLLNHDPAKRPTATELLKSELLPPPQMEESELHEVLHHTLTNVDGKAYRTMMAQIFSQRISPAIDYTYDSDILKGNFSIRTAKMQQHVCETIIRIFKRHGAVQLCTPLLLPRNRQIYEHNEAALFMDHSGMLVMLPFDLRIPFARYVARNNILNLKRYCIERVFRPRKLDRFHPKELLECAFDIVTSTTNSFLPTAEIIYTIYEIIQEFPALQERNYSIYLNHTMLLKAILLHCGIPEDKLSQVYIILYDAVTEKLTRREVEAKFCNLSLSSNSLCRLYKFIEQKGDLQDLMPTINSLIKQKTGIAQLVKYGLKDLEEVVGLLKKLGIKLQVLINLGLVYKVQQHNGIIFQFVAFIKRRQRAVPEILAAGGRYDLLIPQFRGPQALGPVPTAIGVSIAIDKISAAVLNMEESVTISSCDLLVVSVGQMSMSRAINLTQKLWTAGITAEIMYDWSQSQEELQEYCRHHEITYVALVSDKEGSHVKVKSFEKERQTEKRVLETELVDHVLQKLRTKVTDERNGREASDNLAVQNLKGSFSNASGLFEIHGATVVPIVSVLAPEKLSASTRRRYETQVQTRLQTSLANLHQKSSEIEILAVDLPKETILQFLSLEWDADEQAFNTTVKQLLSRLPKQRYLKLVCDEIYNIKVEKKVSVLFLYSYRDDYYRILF
row,Structure (SMILES),IC50 [nM]
1,"COc1ccc(-n2nnc3cnc(N[C@@H]4CC[C@@H](O)C4)nc32)cc1 (racemic) [A10, trans-3-[3-(4-methoxy-phenyl)-3H-[1,2,3]triazolo[4,5-d]pyrimidin-5-ylamino]-cyclopentanol]",< 1000
2,"COc1ccc(-n2nnc3cnc(N[C@H]4CC[C@H](NC(=O)OC(C)(C)C)C4)nc32)cc1 (racemic) [A35, {trans-3-[3-(4-methoxy-phenyl)-3H-[1,2,3]triazolo[4,5-d]pyrimidin-5-ylamino]-cyclopentyl}-carbamic acid tert-butyl ester]",5000 to 10000
3,"COc1ccc(-n2nnc3cnc(N[C@H]4CC[C@@H](O)C4)nc32)cc1 (relative stereo) [A27, cis-3-[3-(4-methoxy-phenyl)-3H-[1,2,3]triazolo[4,5-d]pyrimidin-5-ylamino]-cyclopentanol]",1000 to 5000
4,"O[C@@H]1CC[C@@H](Nc2ncc3nnn(-c4ccc(Br)cc4)c3n2)C1 (relative stereo) [A29, trans-3-[3-(4-bromo-phenyl)-3H-[1,2,3]triazolo[4,5-d]pyrimidin-5-ylamino]cyclopentanol]",< 1000
5,"COc1ccc(-n2nnc3cnc(N[C@@H]4CC[C@](O)(C(F)(F)F)C4)nc32)cc1 (relative stereo) [A67, trans-3-[3-(4-methoxy-phenyl)-3H-[1,2,3]triazolo[4,5-d]pyrimidin-5-ylamino]-1-trifluoromethyl-cyclopentanol]",1000 to 5000
6,"Cn1cc(-c2ccc(-n3nnc4cnc(N[C@H]5CC[C@H](O)C5)nc43)nc2)cn1 (relative stereo) [A94, trans-3-{3-[5-(1-methyl-1H-pyrazol-4-yl)-pyridin-2-yl]-3H-[1,2,3]triazolo[4,5-d]pyrimidin-5-ylamino}-cyclopentanol]",< 1000
7,"COc1ccc(-n2nnc3cnc(N[C@H]4CC[C@@H](N(C)C)C4)nc32)cc1 (relative stereo) [A108, (cis)-N-[3-(4-methoxy-phenyl)-3H-[1,2,3]triazolo[4,5-d]pyrimidin-5-yl]-N′,N′-dimethyl-cyclopentane-1,3-diamine]",< 1000
8,"COc1ccc(-n2nnc3cnc(NC(C)C)nc32)cc1 [A2, Isopropyl-[3-(4-methoxy-phenyl)-3H-[1,2,3]triazolo[4,5-d]pyrimidin-5-yl]-amine]",< 1000
9,"COc1ccc(-n2nnc3cnc(NC4CCOCC4)nc32)cc1 [A3, [3-(4-methoxy-phenyl)-3H-[1,2,3]triazolo[4,5-d]pyrimidin-5-yl]-(tetrahydro-pyran-4-yl)-amine]",1000 to 5000
10,"COc1ccc(-n2nnc3cnc(N[C@H]4CC[C@H](O)CC4)nc32)cc1 [A6, trans-4-[3-(4-methoxy-phenyl)-3H-[1,2,3]triazolo[4,5-d]pyrimidin-5-ylamino]-cyclohexanol]",< 1000
11,"COc1ccc(-n2nnc3cnc(NC(C)(C)C)nc32)cc1 [A7, tert-butyl-[3-(4-methoxy-phenyl)-3H-[1,2,3]triazolo[4,5-d]pyrimidin-5-yl]-amine]",< 1000
12,"COc1ccc(-n2nnc3cnc(NC4CCS(=O)(=O)C4)nc32)cc1 (centres unmarked) [A8, N-(1,1-dioxothiolan-3-yl)-3-(4-methoxyphenyl)triazolo[4,5-d]pyrimidin-5-amine]",< 1000
13,"COc1ccc(-n2nnc3cnc(NC4CCCC4)nc32)cc1 [A12, cyclopentyl-[3-(4-methoxy-phenyl)-3H-[1,2,3]triazolo[4,5-d]pyrimidin-5-yl]-amine]",< 1000
14,"COc1ccc(-n2nnc3cnc(NCCCN4CCN(C)CC4)nc32)cc1 [A13, [3-(4-methoxy-phenyl)-3H-[1,2,3]triazolo[4,5-d]pyrimidin-5-yl]-[3-(4-methyl-piperazin-1-yl)-propyl]-amine]",1000 to 5000
15,"CNc1ncc2nnn(-c3ccc(OC)cc3)c2n1 [A14, [3-(4-methoxy-phenyl)-3H-[1,2,3]triazolo[4,5-d]pyrimidin-5-yl]-methyl-amine]",1000 to 5000
16,"COc1ccc(-n2nnc3cnc(NC4CC(C)(C)N(C)C(C)(C)C4)nc32)cc1 [A15, [3-(4-methoxy-phenyl)-3H-[1,2,3]triazolo[4,5-d]pyrimidin-5-yl]-(1,2,2,6,6-pentamethyl-piperidin-4-yl)-amine]",5000 to 10000

# More lines, now with the values ahead:
row,IC50 [nM],Structure (SMILES)
1,< 1000,"COc1ccc(-n2nnc3cnc(N[C@@H]4CC[C@H](CNC(=O)OC(C)(C)C)C4)nc32)cc1 (relative stereo) [A117, {(cis)-3-[3-(4-methoxy-phenyl)-3H-[1,2,3]triazolo[4,5-d]pyrimidin-5-ylamino]-cyclopentylmethyl}-carbamic acid tert-butyl ester]"
2,1000 to 5000,"COCCn1cc(-n2nnc3cnc(N[C@@H]4CCC[C@@H](C(N)=O)C4)nc32)cn1 (relative stereo) [A165, (trans)-3-{3-[1-(2-methoxy-ethyl)-1H-pyrazol-4-yl]-3H-[1,2,3]triazolo[4,5-d]pyrimidin-5-ylamino}-cyclohexanecarboxylic acid amide]"
3,< 1000,"CCOc1ccc(-n2nnc3cnc(N[C@@H]4CC[C@@H](O)C4)nc32)cn1 (relative stereo) [A206, (trans)-3-[3-(6-ethoxy-pyridin-3-yl)-3H-[1,2,3]triazolo[4,5-d]pyrimidin-5-ylamino]-cyclopentanol]"
4,< 1000,"COCCn1cc(-c2ccc(-n3nnc4cnc(N[C@H]5CC[C@H](O)C5)nc43)cn2)cn1 (relative stereo) [A234, (trans)-3-(3-{6-[1-(2-methoxy-ethyl)-1H-pyrazol-4-yl]-pyridin-3-yl}-3H-[1,2,3]triazolo[4,5-d]pyrimidin-5-ylamino)-cyclopentanol]"
5,< 1000,"COc1ccc(-n2nnc3cnc(N[C@H]4CC[C@H](SC)C4)nc32)cc1 (relative stereo) [A262, [3-(4-methoxy-phenyl)-3H-[1,2,3]triazolo[4,5-d]pyrimidin-5-yl]-((trans)-3-methylsulfanyl-cyclopentyl)-amine]"
6,< 1000,"COc1ccc(-n2nnc3cnc(N[C@H]4CC[C@H](S(C)(=O)=O)C4)nc32)cc1 (relative stereo) [A263, ((trans)-3-methanesulfonyl-cyclopentyl)-[3-(4-methoxy-phenyl)-3H-[1,2,3]triazolo[4,5-d]pyrimidin-5-yl]-amine]"
7,< 1000,"NC(=O)CCn1cc(-c2ccc(-n3nnc4cnc(N[C@H]5CC[C@H](O)C5)nc43)cc2)cn1 (relative stereo) [A268, 3-(4-{4-[5-(trans-3-hydroxy-cyclopentylamino)-[1,2,3]triazolo[4,5-d]pyrimidin-3-yl]-phenyl}-pyrazol-1-yl)-propionamide]"
8,< 1000,"COc1ccc(-n2nnc3cnc(N[C@@H]4CC[C@H](C#N)C4)nc32)cc1 (relative stereo) [A275, cis-3-[3-(4-Methoxy-phenyl)-3H-[1,2,3]triazolo[4,5-d]pyrimidin-5-ylamino]-cyclopentanecarbonitrile]"
9,< 1000,"CCOc1ccc(-n2nnc3cnc(N[C@H]4CC[C@H](n5ncccc5=O)C4)nc32)cc1 (relative stereo) [A287, 2-{(trans)-3-[3-(4-ethoxy-phenyl)-3H-[1,2,3]triazolo[4,5-d]-pyrimidin-5-ylamino]-cyclopentyl}-2H-pyridazin-3-one]"
10,< 1000,"CC(C)(O)c1ccc(-n2nnc3cnc(N[C@@H]4CC[C@@H](O)C4)nc32)cc1 (relative stereo) [A290, (trans)-3-{3-[4-(1-Hydroxy-1-methyl-ethyl)-phenyl]-3H-[1,2,3]triazolo[4,5-d]pyrimidin-5-ylamino}-cyclopentanol]"
